The structures appear in SMILES notation. Values joined by “and” are separate entries in the source; they are usually repeats but may differ in a detail not shown here. Equal values may be shown once. Residues, ends and D or L forms follow the SMILES beside them.

The record followed here is patent EP1758924B1, “PEPTIDES ANTAGONISTS FOR […] SHOCK PROTEIN (HSP 16.3) OF MYCOBACTERIUM TUBERCULOSIS” (priority 2004, dated 2005).

Assay [1] has as its target T1, Hsp16.3 (Mycobacterium tuberculosis, UniProt P9WMK1). The experiment in a line: Peptide inhibition assay for Hsp16.3 chaperon activity (heat-induced ADH aggregation, A360). Format: biochemical. The settings on record: for IC50: IC50 (concentration of peptide at which 50% inhibition of chaperon activity was observed), 5 µM ADH, 50°C, ADH:Hsp16.3 5:4, A360 at 1200 sec. From the text: The binding of a peptide need not necessarily result in inhibition. Inhibition will happen only if binding leads to significant changes in the active site. […] A part of the invention is the development of a peptide inhibition assay for Hsp16.3. The method is based on aggregation based assays. The standard assay used for assaying the activity of alpha-crystallin like proteins is to study the protection it confers against heat induced aggregation of proteins, the aggregation activity being measured spectrophotometrically. Yeast alcohol dehydrogenase (ADH), purchased from Sisco Research Laboratory, Mumbai, India, is used for aggregation studies. Aggregation of 5 µM ADH at 50°C can be measured as an apparent optical density at 360 nm using a spectrophotometer equipped with a thermostated cuvette holder in a total reaction volume of 500 µl. The chaperon activity of Hsp16.3 can be determined by mixing ADH with Hsp16.3 at a molar ratio of 5:4 which is equivalent to a ratio of about 12:1 between ADH and Hsp16.3 assuming a nonameric structure of Hsp16.3 as the functional unit (Chang et al., 1996) and aggregation rates again determined spectrophotometrically. Then the same experiment can be repeated in the presence of increasing concentrations of peptide inhibitors.
A part of the invention is the peptide inhibition assay for Hsp16.3 comprising of heat treating ADH alone, ADH + Hsp16.3 and ADH + Hsp16.3 + 25, 50 and 100 µM peptide. When ADH is heated it aggregates and there is an increase of optical density. In the presence of Hsp16.3 aggregation is prevented, but in the presence of peptide aggregation is again observed if Hsp16.3 activity is inhibited. Aggregation of 5 µM ADH at 50°C was measured as an apparent optical density at 360 nm using Hitachi spectrophotometer equipped with a thermostated cuvette holder in a total reaction volume of 500 µl. The chaperon activity of Hsp16.3 was determined by mixing ADH with Hsp16.3 at a molar ratio of 5:4 and aggregation rates were again determined spectrophotometrically. Then the same experiment was performed in the presence of increasing concentrations of the Hsp16.3 binding peptides (Seq IDs 10 and 22) (Figure 2).
Aggregation assays were performed by heating 5 µM Alcohol dehydrogenase (ADH) to 50°C directly in a spectrophotometer using a thermostated cuvette holder in a total reaction volume of 500 µl. Absorbance was monitored at 360 nm (A360) for 1200 seconds and readings were taken at every 100 seconds interval. When the A360 values were plotted against time (black triangle) it was observed that absorbance increased with time reaching near saturation level at the1200 sec time point. The increase in absorbance indicates aggregation of ADH. […] However the same effect may be obtained if the peptide instead of inhibiting the activity of Hsp16.3 promotes the aggregation of ADH. To eliminate such a possibility a control experiment was done in which the peptide alone was added to ADH.
To obtain a more quantitative interpretation of the data the % residual chaperon activity of Hsp 16.3 in the presence of different concentrations of inhibitor was derived as follows, the A360 values at the saturation point (1200 secs) being taken into consideration.
The % chaperon activity was then plotted against peptide concentration (Fig. 2B). From the resulting curve it is apparent that chaperon activity decreases exponentially with increasing concentration of peptide. […]

For assay [2], the target named is T1, Hsp16.3. The assay is described as follows: biochemical. To be noted: fluoresceinated peptide 200 nM, 50 mM sodium phosphate buffer, pH 7.5, 300 mM NaCl, 25°C, single-site fit. Format: binding.
For the next assay, the target named is T2, human alphaB-crystallin (Homo sapiens, UniProt P02511).
T2 construct: expression vector from Dr. W.C; Boelens, University of Nijmegen
T2 sequence (P02511 1-175): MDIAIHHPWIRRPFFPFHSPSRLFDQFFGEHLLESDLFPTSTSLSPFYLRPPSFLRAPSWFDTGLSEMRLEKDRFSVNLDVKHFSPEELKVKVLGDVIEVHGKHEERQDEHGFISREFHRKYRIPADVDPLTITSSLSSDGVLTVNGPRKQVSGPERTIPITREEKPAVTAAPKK
The experiment in a line: ADH aggregation assay with alphaB-crystallin instead of Hsp16.3 (specificity). It counts as biochemical. To be noted: 25, 50, 100 µM peptide; ADH:alphaB-crystallin 5:4.

Assay [3] has as its target T1, Hsp16.3. The experiment in a line: NMR (TOCSY) comparison of amide proton chemical shifts of free peptide and peptide with Hsp16.3. Format: binding. The settings on record: 0.1 mM protein, 2 mM peptide, 20 mM sodium phosphate pH 7.0, 250 mM NaCl, 4°C. The method, then: All NMR spectra were taken in a Bruker DRX-500 NMR spectrometer equipped with a Z-field gradient probe. All measurements were done in high precision 5-mm NMR tubes in 20 mM sodium phosphate buffer, pH 7.0, containing 250 mM NaCl in 90% H2O and 10% D2O. All NMR experiments were done at 4°C, unless stated otherwise. TOCSY spectra were measured using standard pulse sequences in the Bruker pulse library using WATERGATE water suppression method. Standard Bruker software (Xwin-NMR version 1.3) was used to acquire and process the NMR data. The NMR samples were adjusted to a protein concentration of 0.1 mM and a 20-fold ligand excess (2 mM) over binding sites was used throughout the studies.
The comparison of chemical shifts of amide protons of free peptide (Seq ID 10) (A) and peptide with Hsp16.3 protein (B). Resonance assignments are indicated with a one-letter amino acid code. All NMR spectra were taken in a Bruker DRX-500 spectrometer equipped with a Z-field gradient probe. All measurements were done in high precision 5-mm NMR tubes in 20 mM sodium phosphate buffer, pH 7.0, containing 250 mM NaCl in 90% H2O and 10% D2O at 4°C. TOCSY spectra were measured using standard pulse sequences in the Bruker pulse library using WATERGATE water suppression method. Standard Bruker software (Xwin-NMR version 1.3) was used to acquire and process the NMR data. […]

T1 sequence (P9WMK1 whole entry, looked up): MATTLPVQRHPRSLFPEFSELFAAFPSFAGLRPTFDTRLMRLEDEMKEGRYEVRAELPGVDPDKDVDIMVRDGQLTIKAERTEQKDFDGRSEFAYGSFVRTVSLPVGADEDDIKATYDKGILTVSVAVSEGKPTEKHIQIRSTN

Regarding `CC[C@H](C)[C@H](NC(=O)[C@@H]1CCCN1C(=O)[C@@H](NC(=O)[C@H](Cc1c[nH]cn1)NC(=O)[C@H](CCCNC(=N)N)NC(=O)[C@H](Cc1c[nH]cn1)NC(=O)[C@H](CCCCN)NC(=O)[C@H](Cc1ccccc1)NC(=O)[C@H](Cc1c[nH]cn1)NC(=O)[C@H](Cc1c[nH]cn1)NC(=O)[C@@H]1CCCN1C(=O)[C@@H](N)Cc1ccc(O)cc1)[C@@H](C)CC)C(=O)NCC(=O)NCC(=O)NCC(=O)N[C@@H](CO)C(N)=O` [Seq ID 22, Tyr-Pro-His-His-Phe-Lys-His-Arg-His-Ile-Pro-Ile-Gly-Gly-Gly-Ser] (H-YPHHFKHRHIPIGGGS-NH2), the IC50 on Hsp16.3 [1] is 57 µM and 52 µM. Also, the Kd on Hsp16.3 [2] is ~40 µM and 40 µM.
Turning to `CSCC[C@H](NC(=O)[C@@H](N)CCCCN)C(=O)N[C@@H](Cc1c[nH]cn1)C(=O)N[C@@H](C)C(=O)N[C@H](C(=O)N[C@@H](CC(N)=O)C(=O)N[C@@H](Cc1c[nH]cn1)C(=O)NCC(=O)NCC(=O)NCC(=O)N[C@@H](CO)C(N)=O)[C@@H](C)O` [Seq ID 10, Lys-Met-His-Ala-Thr-Asn-His-Gly-Gly-Gly-Ser] (H-KMHATNHGGGS-NH2), the aggregation restored on Hsp16.3 [1] (100 µM peptide, A360 at saturation point, ADH:Hsp16.3 5:4) is about 70%. Further, the “inhibition of chaperon activity of Hsp16.3” value at Hsp16.3 [1] (25, 50 and 100 µM peptide) is recorded as “dose dependent inhibition”. The “influence of peptide alone on aggregation of ADH (only peptide control)” value on Hsp16.3 [1] (ADH + 100 µM peptide, no Hsp16.3) is reported as “does not influence the aggregation of ADH”. Moreover, on Hsp16.3 [1], the IC50 was 47 µM and ~47 µM. The “inhibition of chaperon activity of alphaB-crystallin” value against human alphaB-crystallin is on record as “no inhibition”. The Kd at Hsp16.3 [2] is ~50 µM and 50 µM. For the same compound, on Hsp16.3 [3], the “chemical shift of amide protons on addition of Hsp16.3” value is “significant chemical shift occured in both histidines”.
